Measurements taken from US20240261418A1, “SOS1 DEGRADING AGENT AND PREPARATION METHOD THEREFOR AND APPLICATION THEREOF” (SHANGHAI LEADINGTAC PHARMACEUTICAL CO. LTD., priority 2021, published 2024).

Key:
[1] = target: T1, KRAS-G12C/SOS1 (Homo sapiens, UniProt Q07889); assay: KRAS-G12C/SOS1 binding assay (HTRF); conditions: inhibition of KRAS-G12C/SOS1 binding
T1 construct: purchased Cisbio 63ADK000CB16PEG
T1 sequence (Q07889 1-1333): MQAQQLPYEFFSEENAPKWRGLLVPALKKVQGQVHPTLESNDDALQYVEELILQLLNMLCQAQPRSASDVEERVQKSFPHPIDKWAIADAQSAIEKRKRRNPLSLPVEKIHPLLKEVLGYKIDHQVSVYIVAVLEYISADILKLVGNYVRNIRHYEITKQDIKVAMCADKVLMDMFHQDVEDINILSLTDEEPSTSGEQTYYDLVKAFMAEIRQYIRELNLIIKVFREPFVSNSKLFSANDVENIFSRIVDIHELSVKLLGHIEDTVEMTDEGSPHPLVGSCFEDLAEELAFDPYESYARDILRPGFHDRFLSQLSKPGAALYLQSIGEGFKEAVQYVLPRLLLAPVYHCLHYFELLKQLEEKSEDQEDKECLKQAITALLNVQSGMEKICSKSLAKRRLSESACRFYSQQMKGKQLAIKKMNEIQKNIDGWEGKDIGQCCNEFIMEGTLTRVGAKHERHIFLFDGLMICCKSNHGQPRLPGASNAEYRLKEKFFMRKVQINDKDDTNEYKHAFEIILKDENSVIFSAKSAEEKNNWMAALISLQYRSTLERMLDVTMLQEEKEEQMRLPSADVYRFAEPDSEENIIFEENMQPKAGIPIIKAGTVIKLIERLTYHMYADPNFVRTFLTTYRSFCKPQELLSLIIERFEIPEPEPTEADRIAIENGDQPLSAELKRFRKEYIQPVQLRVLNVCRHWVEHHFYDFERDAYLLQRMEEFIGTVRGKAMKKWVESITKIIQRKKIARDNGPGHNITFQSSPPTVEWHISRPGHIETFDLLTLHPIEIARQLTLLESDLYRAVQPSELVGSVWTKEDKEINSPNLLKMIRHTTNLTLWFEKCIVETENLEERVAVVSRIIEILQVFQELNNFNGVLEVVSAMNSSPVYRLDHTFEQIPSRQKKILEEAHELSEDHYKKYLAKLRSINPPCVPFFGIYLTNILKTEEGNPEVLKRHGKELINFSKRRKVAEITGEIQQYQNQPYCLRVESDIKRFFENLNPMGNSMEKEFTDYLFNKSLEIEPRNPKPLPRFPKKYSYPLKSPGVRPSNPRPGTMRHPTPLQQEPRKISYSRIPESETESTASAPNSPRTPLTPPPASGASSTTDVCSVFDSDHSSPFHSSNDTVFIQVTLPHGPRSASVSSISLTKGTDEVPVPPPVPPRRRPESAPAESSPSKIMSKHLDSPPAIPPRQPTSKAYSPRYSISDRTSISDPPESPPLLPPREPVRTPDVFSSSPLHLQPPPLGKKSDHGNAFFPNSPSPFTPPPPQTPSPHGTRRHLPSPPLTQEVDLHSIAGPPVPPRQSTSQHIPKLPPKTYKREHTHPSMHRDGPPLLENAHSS
Method: Test Example 1: KRAS-G12C/SOS1 Binding Assay
The following method was used to determine the extent of inhibition of KRAS-G12C/SOS1 binding by the preferred compounds of the present invention under in vitro conditions. In this method, the competitive inhibition of KRAS-G12C/SOS1 binding by the preferred compounds was assayed by the homogeneous time-resolved fluorescence (HTRF) technology using the KRAS-G12C/SOS1 binding assay kit (Cisbio, 63ADK000CB16PEG).
The experimental procedures were as follows (refer to the kit instructions for details): the compounds of the present invention were each firstly dissolved in DMSO at a concentration of 20 mM, and then diluted in an equal gradient with a buffer in the kit, so that the final concentrations of the test compounds in the reaction system were in a range of 10000 nM-0.04 nM, and the final concentration of DMSO was 0.5%. 2 μL of the compounds were each incubated with 4 μL of 1×Tag1-SOS1, 4 μL of 1×Tag2-KRAS-G12C (containing 10 μM guanosine triphosphate, GTP) at 25° C. for 15 min. Then 5 μL of 1×Anti-Tag1-Tb3+ and 5 μL of 1×Anti-Tag2-XL665 were added to the reaction system, and the mixture was incubated on ice for 3 h. After the incubation, the fluorescence intensity of each well was measured at the excitation wavelength of 337 nm, the fluorescence intensity of each well was read at the emission wavelengths of 620 nm and 665 nm on a microplate reader EnVision (PerkinElmer, 2105) in an HTRF mode, and the Ratio value was calculated by the formula Ratio=(665 nm/620 nm)×[…]. The inhibition rates of the compounds at each concentration were calculated by comparing the fluorescence intensity ratio with that of the control group, and then nonlinear curve fitting was performed by GraphPad Prism 8 in the logarithmic concentration-inhibition rate to obtain the IC50 values of the compounds, as shown in Table 1.

[2] = tested on: KRAS G12V mutant human lung adenocarcinoma cells NCI-H441; assay: 3D cell proliferation inhibition assay, NCI-H441; format: cell-based; conditions: NCI-H441, 168 h, 7 days, CTG
Description: (§1) Test Example 4: 3D Cell Proliferation Inhibition Assay
(§2) The inhibitory effect of the compounds on the proliferation of 3D cells was investigated on KRAS G12C mutant human non-small cell lung cancer cells NCI-H358 (ATCC or Stem Cell Bank, Chinese Academy of Sciences), KRAS G12D mutant human metastatic pancreatic adenocarcinoma cells AsPC-1 (ATCC), KRAS G12V mutant human lung adenocarcinoma cells NCI-H441 (ATCC), and KRAS G13D mutant human colorectal adenocarcinoma epithelial cells DLD-1 (ATCC). The specific procedures were as follows:
(§3) 200 nL of compound solution diluted in a gradient was added to corresponding microwells of a 384-well low-adsorption microwell plate (Corning, 3657) using an Echo sonic pipetting system (Labcyte, Echo 550), so that the final concentration of the test compound in the reaction system was in a range of 20000 nM-0.008 nM. Then 40 μL of cells at a certain density were added to the corresponding microplate. In addition to test wells for the test compounds, both a DMSO control well and a medium control well were set, with the DMSO control well containing DMSO and cells and the medium well containing only medium. […] The plate was incubated at room temperature for 30 min and read on a microplate reader EnVision using the chemiluminescence program. […]

[3] = tested on: KRAS G12D mutant human metastatic pancreatic adenocarcinoma cells AsPC-1; assay: 3D cell proliferation inhibition assay, AsPC-1; format: cell-based; conditions: ASPC1, 168 h, 7 days, CTG
Description: as §1, §2, §3

IC50 [1] [nM] | IC50 [2] [nM] | IC50 [3] [nM] | Structure (SMILES)
≤ 15 | 50 to 100 | 15 to 30 | COc1cc2nc(C)nc(N[C@H](C)c3cc(-c4c(Cl)cccc4CN(C)C)cs3)c2cc1[C@H]1CC[C@H](C(=O)N2CCN(CC3CCC4(CC3)CCN(C(=O)c3ccc(Cl)c(N5CCC(=O)NC5=O)c3)CC4)CC2)CC1 [Example 1, 1-(2-chloro-5-(9-((4-((1R,4R)-4-(4-(((R)-1-(4-(2-chloro-6-((dimethylamino)methyl)phenyl)thien-2-yl)ethyl)amino)-7-methoxy-2-methylquinazolin-6-yl)cyclohexane-1-carbonyl)piperazin-1-yl)methyl)-3-azaspiro[5.5]undecane-3-carbonyl)phenyl)dihydropyrimidine-2,4(1H,3H)-dione]
≤ 15 | ≤ 15 | 100 to 1000 | COc1cc2nc(C)nc(N[C@H](C)c3cc(-c4c(Cl)cccc4CN(C)C)cs3)c2cc1[C@H]1CC[C@H](C(=O)N2CCC(CCOCC3CCN(C(=O)c4ccc(Cl)c(N5CCC(=O)NC5=O)c4)CC3)CC2)CC1 [Example 5, 1-(2-chloro-5-(4-((2-(1-((1R,4R)-4-(4-(((R)-1-(4-(2-chloro-6-((dimethylamino)methyl)phenyl)thien-2-yl)ethyl)amino)-7-methoxy-2-methylquinazolin-6-yl)cyclohexane-1-carbonyl)piperidin-4-yl)ethoxy)methyl)piperidine-1-carbonyl)phenyl)dihydropyrimidine-2,4(1H,3H)-dione]
